Row | melting point | SMILES
1 | 72 to 75 °C | N#Cc1cc(/C=C/C(c2cc(Cl)c(Cl)c(Cl)c2)C(F)(F)F)ccc1-n1cnc(N)n1 (centres undefined)
2 | 220 to 222 °C | CSc1ccccc1-c1ccc(C(=O)O)cc1
3 | 175 to 177 °C | COCC1CN(c2ccc(C3CCN(Cc4ccccc4)CC3)cc2)C(=O)O1 (racemic)
4 | 59 to 61 °C | Cc1cc(C)cc(Cc2c(C(C)C)c(=O)[nH]c(=O)n2COCCCN(OC(=O)Oc2ccccc2)C(=O)Oc2ccccc2)c1
5 | 72 °C | CN(C(=O)Nc1cccc(C(F)(F)F)c1)S(C)(=O)=O
6 | 85 to 89 °C | COc1ccc(C=CC(=O)C=Cc2ccccc2)cc1
7 | 267 to 269 °C | O=C1c2cccc3c(Cl)c(Cl)cc(c23)C(=O)N1O
8 | 172 to 174 °C | Cc1csc2nc(S(=O)(=O)Nc3ccccc3Cl)nn12
9 | 137 to 139 °C | CN(C(=S)Nc1ccc(NNC=O)cc1)c1ccccc1
10 | 49 to 50 °C | CCCCCCCCCCCCC1(CCCCCCCCCCCC)c2cc(Br)ccc2-c2ccc(Br)cc21
11 | 119 °C | COC(=O)c1cccc2c(Br)c(OC)ccc12
12 | 252 to 254 °C | NC(CSCc1ccccc1C(=O)O)C(=O)O (centres undefined)
13 | 144 to 146 °C | CCCC(=O)c1cnc2c(OCCOCCO)cccc2c1Nc1ccccc1C
14 | 126 to 129 °C | Cn1c(C(F)(F)F)cc(=O)n(-c2cc(OCc3ccccc3Cl)c(Cl)cc2F)c1=O
15 | 138 to 139 °C | O=C(c1ccco1)c1cnn2c1NCCC2
16 | 250 to 251 °C | CC(C)(C)c1ccc(C(=O)Nc2cn3cc(F)ccc3n2)cc1
17 | 124 to 125 °C | OCCCn1c(=S)[nH]c2c(OCc3ccccc3)cccc21
18 | 216 to 219 °C | Cc1ccc2c(c1)c1cc(C(=O)O)sc1n2C
19 | 60 to 62 °C | COc1ccc(-c2ccc3c(c2)C2(CO3)C(=O)N(Cc3ccc(Cl)s3)c3ccccc32)cn1 (centres undefined)
20 | 117 to 118 °C | Oc1cccc(C(F)(F)F)n1
21 | 39 to 40 °C | Cn1cccc1-c1ccc(C(F)(F)F)cc1
22 | 87 to 90 °C | CCCCCCCCCCc1ccc(CNc2ccc(C(=O)OCC)cc2)cc1
23 | 208 °C | COc1cc(C)c2c(c1)-c1c([nH]c3ccccc13)C2
24 | 118 to 120 °C | Cn1nc(C(=O)O)nc1CCCC(O)=S
25 | 96.3 to 98.5 °C | O=C1CC[C@H](c2ccc(NC(=O)OCc3ccccc3)cc2)C1

Row | melting point | SMILES
26 | 70 to 72 °C | O=C(NCCSCc1cccc(F)c1)c1c(Cl)cccc1Cl
27 | 83 to 85 °C | CC(C)(C)OC(=O)NC(O)CCO (centres undefined)
28 | 175 to 176 °C | CNc1cc(Oc2ccc3c(c2)CCCN3C(=O)Nc2ccc(C(C)(C)C)cc2)ncn1
29 | 125 °C | CCOC(=O)N(C)C1CCN(c2nc3ccccc3n2Cc2ccc(F)cc2)CC1
30 | 227 to 229 °C | O=C(Nc1cccc(S(=O)(=O)N2CCCC2CO)c1)c1cnn2c(C(F)(F)F)cc(-c3ccc(Cl)cc3)nc12 (centres undefined)
31 | 180 to 181 °C | CCOC(=O)c1ccn2nc(-c3ccccc3)cc2n1
32 | 170 to 172 °C | N#Cc1ccc2nc(C(O)(Cn3cncn3)c3ccc(F)cc3F)sc2c1 (centres undefined)
33 | 194 to 195 °C | CN1C(=O)C(C)(C)C(=O)N(C)c2cc(Br)ccc21
34 | 89 to 90 °C | O=C(/C=C/C=C(c1cccc(C(F)(F)F)c1)c1cccc(C(F)(F)F)c1)NCCCCc1cccnc1
35 | 204 to 206 °C | CCOC(=O)C1=C(C)NC(C#N)=C(C(=O)OCC)C1c1cc([N+](=O)[O-])ccc1Cl (centres undefined)
36 | 241 to 243 °C | CCCn1cnc(C(N)=O)c1N
37 | 195 °C | CCCCc1nc(S(=O)c2ccccc2)c(C(=O)O)n1Cc1ccc(-c2ccccc2C(=O)O)cc1 (centres undefined)
38 | 70 to 71 °C | CNc1nc(Nc2ccc(CCNC(=O)OC(C)(C)C)cc2)ncc1[N+](=O)[O-]
39 | 122 to 123 °C | C#Cc1ccc(C=O)cc1
40 | 146 to 148 °C | CSCc1cn(C)c2c(Cl)cccc2c1=O
41 | 208 °C | c1ccc(-c2nnc3c4ccccc4c(N4CCCC4)nn23)cc1
42 | 152 to 154 °C | CCCC12CCC(=O)C=C1c1c(cc(OCC3=NCCN3)c(Cl)c1Cl)C2 (centres undefined)
43 | 95 to 96 °C | Cc1ccc(S(=O)(=O)OCC2COc3ccc4c(c3O2)CCO4)cc1 (centres undefined)
44 | 242 to 246 °C | O=C(C(c1ccccc1)n1cnc2[nH]ncc2c1=S)N1CCN(c2ccccn2)CC1 (centres undefined)
45 | 78 to 80 °C | C/C(=C/C(=O)O)c1ccn(-c2c(C)cccc2C)c1
46 | 211 to 213 °C | NC(=O)c1sc2nccc(N3CCCN(c4ccc(OCc5ccccc5)cc4)CC3)c2c1N
47 | 137 to 138 °C | CC(C)c1oc(-c2ccc(F)cc2)nc1CC(=O)O
48 | 60 to 62 °C | CC(C)=CCN1Cc2c(Cl)ccc([N+](=O)[O-])c2NC[C@@H]1C
49 | 107 °C | CCC(=O)c1ccc(CCNS(=O)(=O)c2ccc(OC)cc2)cc1
50 | 194 to 196 °C | Cc1nc(Nc2ccccc2)sc1C(=O)c1sc(Nc2ccccc2)nc1C

Row | melting point | SMILES
51 | 101 to 103 °C | OCc1ccc2c(c1)ncn2-c1cccc(COCc2ccccn2)c1
52 | 208 °C | NS(=O)(=O)c1cc(C(=O)O)cc([N+](=O)[O-])c1NCCc1ccccc1
53 | 199 to 201 °C | COc1ccc(F)c(F)c1C=NO
54 | 66 to 67 °C | COc1ccc(Cc2cc(OC)c(OC)c(OC)c2)cc1
55 | 128 to 131 °C | COc1ccc(C(C)CN2C=CC=C3C2=Nc2cc(OC)ccc2S(=O)(=O)N3C)cc1 (centres undefined)
56 | 89 to 90 °C | CC(C)(C)OC(=O)NCC(O)c1ccco1 (centres undefined)
57 | 92.5 to 95 °C | COC(=O)CC(c1ccc(OC)c(OC)c1)N1C(=O)C2CCCCC2C1=O (centres undefined)
58 | 71 to 72 °C | COC(=O)[C@H](Cc1ccccc1)NC(=O)CCC#N
59 | 168 to 170 °C | OC1CCN(c2ncc(-c3ccc(Cl)cc3)cn2)CC1
60 | 89 to 90 °C | OCc1ccc(-c2cccnc2)s1
61 | 137 to 138 °C | CCCC(CCC)NC(=O)c1ccc2oc(OC)nc2c1
62 | 102 to 109 °C | CC(C)C[C@H](NC(=O)[C@H](Cc1c[nH]cn1)NC(=O)[C@H](Cc1cccc2ccccc12)NC(=O)OCc1ccccc1)[C@@H](O)CC(=O)OCc1ccccc1
63 | 166 °C | CCN(CC)S(=O)(=O)c1cc(-c2csc(=Nc3ccccc3C)n2C)ccc1Cl
64 | 274 to 276 °C | O=C(O)c1cn(C2CC2)c2nc(N3CCNCC3)c(F)cc2c1=O
65 | 178 to 179 °C | CCn1nc(-c2ccccc2)c(C(C)=O)c(Nc2cc(C)no2)c1=O
66 | 138 °C | CC1CCN(C(=O)c2nc(-c3ccccc3)nc3ccccc23)CC1
67 | 59 to 61 °C | CC(C)Oc1cc(N2C(=O)C3COCCN3C2C(=O)O)c(F)cc1Cl (centres undefined)
68 | 126 °C | CCCCCCCCOC(=O)Oc1ccc(C(=O)O)cc1
69 | 120 to 122 °C | C=CCc1c(O)cc(OC)cc1C(=O)O
70 | 175 to 177 °C | CCOc1cc(N)c(Cl)cc1C(=O)NC1CCN(CC2CCN(C(=O)CCOC)CC2)CC1
71 | 36 to 38 °C | CC(C)COC[C@H](CC(C)C)NC(=O)[C@H]1O[C@@H]1C(=O)OC(C)C
72 | 201 to 202 °C | CCOC(=O)c1cc(OC)c(Cc2cnc(N)nc2N)c(OC)c1
73 | 132 to 133 °C | COc1ccc(-c2cc(NC(=O)CCCCN3CCCN(C(C)=O)CC3)n[nH]2)cc1
74 | 191 to 193 °C | O=c1ccc(-c2ccc(C(F)(F)F)cc2)n[nH]1
75 | 103 to 105 °C | COC(=O)c1cc2ccc(S)cc2nc1OC

Row | melting point | SMILES
76 | 120 to 121 °C | COCCNC(=O)c1ccc(C(=O)N2CCN(c3ncccc3NC(C)C)CC2)cc1
77 | 138 to 139 °C | O=C1CCN(c2ccc(CNC(=O)c3cccnc3Oc3ccc(F)cc3)cc2)CC1
78 | 180 to 181 °C | Clc1ccc(C(Cn2ccnc2)OCc2cc(Cl)nc3ccccc23)c(Cl)c1 (centres undefined)
79 | 79 to 85 °C | Oc1cc2c(cc1CCc1cccs1)OCC2
80 | 92 °C | CSC(=S)C1(c2cccc(C)n2)SCCCS1
81 | 145 to 146 °C | C#CCN(Cc1cc2c(=O)n(C)c(CN3CCN(CC)CC3)nc2cc1Cl)c1ccc(C(=O)OC(C)(C)C)cc1
82 | 45 to 50 °C | O=C1Nc2ccc([N+](=O)[O-])cc2/C1=C(/Nc1ccc(CN2CCCC2)cc1)c1ccccc1
83 | 196 to 198 °C | CCOc1cc2c(-c3ccnc(Cl)c3)c(C(=O)OC)c(C(=O)OC)cc2cc1OC
84 | 82 to 83 °C | FCCCCNc1cn(-c2cccnc2)nc1Cl
85 | 150 °C | COc1cc(CN[C@H]2CC[C@H](Nc3ccnc4cc(Cl)ccc34)CC2)cc(OC)c1
86 | 130 to 132 °C | O=CN1CCN(c2nn(-c3ccccc3)c3ccccc23)CC1
87 | 198 °C | O=C(NOC1CCCCO1)c1cnc(N2CCN(S(=O)(=O)c3ccc4ccccc4c3)CC2)nc1 (centres undefined)
88 | 173 to 175 °C | COc1ccc2c(c1)cc(C(=O)O)n2C(C)=O
89 | 95 °C | COCC(COC)(Cc1ccccc1)Cc1ccccc1
90 | 80 to 82 °C | OCCc1nccn1CCCc1ccc(OCc2ccccc2)cc1
91 | 218 to 219 °C | CC1(NC2=NS(=O)(=O)c3sc(Cl)cc3N2)CCCCC1
92 | 105 to 108 °C | Cc1nnc(N2N=C(c3ccc(Cl)cc3)c3cc4c(cc3C[C@H]2C)OCO4)s1
93 | 111 to 112 °C | COC(=O)C[C@@H]1C[C@@H](COc2ccc(-c3ccc(C#N)cc3)cc2N)N(CCCc2ccccc2)C1=O
94 | 134 to 135 °C | Cc1ccc(-c2coc3c(C)c(C)cc(C)c23)nc1
95 | > 300 °C | CCCn1c(=O)c2c(NC)n[nH]c2n(Cc2ccccc2Cl)c1=O
96 | 196 to 198 °C | COC(=O)C1=C(C#N)NC(C)=C(C(=O)OCC(C)C)C1c1ccccc1C#N (centres undefined)
97 | 45 to 47 °C | OC(c1ccc(F)cc1)c1cccnc1 (centres undefined)
98 | 136 to 139 °C | COc1cc(OC)nc(C(=O)NS(=O)(=O)Oc2c(Cl)cccc2Cl)n1
99 | 156 to 157 °C | CCCCCCCCCCCCCCCC(=O)NS(=O)(=O)CCCC(=O)O

Row | SMILES | melting point
100 | O=C(NNc1ccccc1)C1CSC(c2cccnc2)N1 (centres undefined) | 155 °C
101 | O=C(CCl)Nc1ccncc1O | 155 to 158 °C
102 | c1ccc(-c2cn([C@H]3CN4CCC3CC4)nn2)cc1 | 132 °C
103 | COC(=O)c1ccc2c(c1)C(SCCCl)c1ccccc1CO2 (centres undefined) | 100 to 102 °C
104 | COc1cccc(CBr)c1CBr | 78 to 79 °C

— a melting point compilation (Tetko et al.; mined from patent text by program, amines drawn as free bases though some values may be those of a salt)
